The structures appear in SMILES notation. Calls of active or inactive are those of the source. The calls are words filed in the database; no cut-off is given here.

Data set [1] relates to Mus musculus. Put plainly: Toxicity in mouse allografted with mouse P388 cells assessed as change in body weight at 50 mg/kg administered daily as single dose. More on the design: dose 50 mg/kg. In kind it is organism-based. As to conditions: in vivo.
The subject of data set [2] is Mus musculus. Put plainly: Toxicity in mouse allografted with mouse P388 cells assessed as change in body weight at 100 mg/kg administered daily as single dose. Format: organism-based. More on the design: dose 100 mg/kg. The settings on record: in vivo.
Data set [3] deals with P388. As to the kind of experiment: Antileukemic activity against mouse P388 cells allografted in mouse assessed as host survival at 25 mg/kg administered daily as single dose. More on the design: dose 25 mg/kg. In kind it is functional, organism-based.
Data set [4] has as its system P388. Put plainly: Antileukemic activity against mouse P388 cells allografted in mouse at 25 mg/kg administered daily as single dose relative to control. Format: functional.
Data set [5] relates to Mus musculus. As to the kind of experiment: Toxicity in mouse allografted with mouse P388 cells assessed as change in body weight at 25 mg/kg administered daily as single dose. Format: organism-based. More on the design: dose 25 mg/kg. As to conditions: in vivo.
In data set [6] the test system is P388. Put plainly: Antileukemic activity against mouse P388 cells allografted in mouse assessed as host survival at 50 mg/kg administered daily as single dose. In kind it is functional, organism-based. Also on record: dose 50 mg/kg.
Data set [7] deals with P388. Put plainly: Antileukemic activity against mouse P388 cells allografted in mouse at 100 mg/kg administered daily as single dose relative to control. In kind it is functional.
Data set [8] deals with P388. As to the kind of experiment: Antileukemic activity against mouse P388 cells allografted in mouse at 50 mg/kg administered daily as single dose relative to control. In kind it is functional.
Data set [9] deals with Mus musculus. Put plainly: Toxicity in mouse allografted with mouse P388 cells assessed as change in body weight at 6.25 mg/kg administered daily as single dose. Also on record: dose 6.25 mg/kg. In kind it is organism-based. The settings on record: in vivo.
Data set [10] has as its system P388. Put plainly: Antileukemic activity against mouse P388 cells allografted in mouse assessed as host survival at 6.25 mg/kg administered daily as single dose. In kind it is functional, organism-based. Also on record: dose 6.25 mg/kg.
Data set [11] deals with P388. As to the kind of experiment: Antileukemic activity against mouse P388 cells allografted in mouse at 6.25 mg/kg administered daily as single dose relative to control. In kind it is functional.
Data set [12] concerns P388. As to the kind of experiment: Antileukemic activity against mouse P388 cells allografted in mouse assessed as host survival at 12.5 mg/kg administered daily as single dose. Format: functional, organism-based. Also on record: dose 12.5 mg/kg.
Data set [13] deals with Mus musculus. Put plainly: Toxicity in mouse allografted with mouse P388 cells assessed as change in body weight at 12.5 mg/kg administered daily as single dose. As to conditions: in vivo. More on the design: dose 12.5 mg/kg. In kind it is organism-based.
For data set [14], the system named is P388. Put plainly: Antileukemic activity against mouse P388 cells allografted in mouse at 12.5 mg/kg administered daily as single dose relative to control. In kind it is functional.
Data set [15] has as its system P388. Put plainly: Antileukemic activity against mouse P388 cells allografted in mouse assessed as host survival at 3.13 mg/kg administered daily as single dose. In kind it is functional, organism-based. Also on record: dose 3.13 mg/kg.
Data set [16] deals with Mus musculus. Put plainly: Toxicity in mouse allografted with mouse P388 cells assessed as change in body weight at 3.13 mg/kg administered daily as single dose. In kind it is organism-based. More on the design: dose 3.13 mg/kg. As to conditions: in vivo.
The subject of data set [17] is P388. Put plainly: Antileukemic activity against mouse P388 cells allografted in mouse at 3.13 mg/kg administered daily as single dose relative to control. Format: functional.
In data set [18] the test system is P388. Put plainly: Antileukemic activity against mouse P388 cells allografted in mouse at 18.8 mg/kg administered daily as single dose relative to control. Format: functional.
The subject of data set [19] is Mus musculus. Put plainly: Toxicity in mouse allografted with mouse P388 cells assessed as change in body weight at 18.8 mg/kg administered daily as single dose. In kind it is organism-based. More on the design: dose 18.8 mg/kg. As to conditions: in vivo.
Data set [20] deals with P388. Put plainly: Antileukemic activity against mouse P388 cells allografted in mouse assessed as host survival at 18.8 mg/kg administered daily as single dose. More on the design: dose 18.8 mg/kg. In kind it is functional, organism-based.

As to `COc1cc2c[n+]3c4c(cccc4c2cc1OC)CC3.[Cl-]`, the Activity was -1.7 g in [1], -5.1 g in [2] and -0.9 g in data set [5]. Further, the Survival entry in [3] and in data set [6] was “Active” throughout. Further, the T/C in [4] was found to be 108%; in data set [7] it was 114%; in data set [8], 118%.
With `[Cl-].c1cc2c3c(c1)c1cc4c(cc1c[n+]3CC2)OCO4` [ANHYDROLYCORINIUM CHLORIDE], the Activity was -1.5 g in [9], -2.9 g in data set [5] and -2.1 g in [13]. Besides, the Survival result in [10], in data set [3] and in [12] was “Active” throughout. For the same compound, the T/C in data set [11] was found to be 127%; in data set [4] it was 153%; in data set [14], 142%.
Consider `COc1cc2c[n+]3c4c(cccc4c2cc1OC)CCC3.[Cl-]`, for which the results for the Activity in [1], in [5] and in [13] were -3.2 g, -0.1 g and -1.4 g, respectively. Moreover, the Survival result in data set [3], in data set [12] and in data set [6] was “Active” in each case. Also, the T/C in data set [4] is 108%; in [14], 109%; in [8], 110%.
On to `[O-]c1cc2c3c(c1)c1cc4c(cc1c[n+]3CC2)OCO4` [UNGEREMINE], for which the Activity in data set [1] is listed as -3.9 g; in data set [16] it was -0.7 g; in data set [9], -0.7 g; in data set [5], -2.1 g; in data set [13], -1.9 g. In addition, the Survival entry in [15], in data set [10], in [3], in data set [12] and in data set [6] was “Active” in each case. The T/C in [17] turned out to be 133%; in data set [11] it was 136%; in data set [4], 148%; in [14], 148%; in [8], 152%.
Turning to `Oc1cc2c3c(c1)c1cc4c(cc1c[n+]3CC2)OCO4.[Cl-]`, the Survival entry in data set [15], in [10] and in data set [12] was “Active” each time. In addition, the Activity in [16] is -0.7 g; in data set [9], -1.7 g; in [5], -3.9 g; in data set [13], -2.4 g. For the same compound, the T/C in [17] was 133%; in data set [11], 151%; in data set [4] it was 164%; in [14], 155%.
For the compound `[Cl-].c1cc2c3c(c1)c1cc4c(cc1c[n+]3CCC2)OCO4`, the Survival entry in data set [15], in data set [10], in data set [12] and in data set [20] was “Active” throughout. In addition, the Activity is reported as -0.2 g in data set [16]; -1.7 g in data set [9]; -3.3 g in [5]; -2.4 g in [19]; -1.9 g in [13]. For the same compound, the T/C in [18] is 132%; in data set [17], 110%; in data set [11], 126%; in data set [4], 120%; in data set [14] it was 129%. Further, the Survival entry in data set [6] is “inactive”.
`COS(=O)(=O)[O-].C[n+]1cc2ccccc2c2ccccc21`: the Activity in [1] is -6.4 g; in data set [16], -0.8 g; in [9], -1 g; in data set [5], -3.2 g; in data set [13] it was -2.2 g. Besides, the Survival entry in [15], in data set [10], in data set [3], in data set [12] and in data set [6] was “Active” in each case. The T/C in data set [17] stood at 108%; in data set [11], 117%; in data set [4] it was 125%; in [14], 120%; in [8], 113%.
Consider `COc1cc2c[n+](C)c3ccccc3c2cc1OC.[Cl-]`, for which the Activity in data set [1] is given as -1.6 g; in data set [2], -3.8 g; in [5], -1 g; in [13], -1.1 g. Besides, the Survival entry in data set [3], in data set [12] and in data set [6] was “Active” in each case. In addition, the T/C is on record as 121% in [4], 113% in [14], 123% in data set [7] and 130% in data set [8].
Take `C[n+]1cc2cc3c(cc2c2ccccc21)OCO3.[Cl-]`: the Survival entry in data set [15], in data set [10], in data set [3], in [12] and in data set [20] was “Active” in each case. Moreover, the Activity in [16] is listed as -0.3 g; in data set [9], -0.9 g; in data set [5], -2.5 g; in data set [19], -1.3 g; in data set [13] it was -1 g. For the same compound, the T/C in data set [18] is 144%; in data set [17] it was 126%; in data set [11] it was 129%; in data set [4], 151%; in data set [14], 135%.

One may read the T/C as the ratio of treated to control.

The record behind these values is ChEMBL document CHEMBL3243981, “Antileukemic activity of ungeremine and related compounds. Preparation of analogues of ungeremine by a practical photochemical reaction” (J Med Chem, 1978).
